Test results: patent US20200291082A1, “PREVENTION AND TREATMENT OF GRAFT-VERSUS-HOST-DISEASE WITH DEFENSINS” (priority 2017, published 2020)
Entries after “also recorded” stand apart in the source; their conditions may differ. No end group written: not given here.

How the values were obtained:
[1] = test system: Dextran Sodium Sulphate induced colitis; assay: therapeutic murine 14-day Dextran Sodium Sulphate induced colitis model (Example 5); type: in vivo, C57BL/6 mice
Protocol: Anti-inflammatory effect of s.c. administration of hBD2 versus intraperitoneal anti TNF-α and intraperitoneal dexamethasone in a therapeutic, murine, 14-day, Dextran Sodium Sulphate induced colitis model.
70 male C57BL/6 mice housed in groups of five per cage were allocated to 7 different treatment groups. All animals had their drinking water supplemented with DSS 2% for 14 days to induce colitis resulting in significant inflammation and injury of the colonic tissue. The animals were treated with hBD2, 0.1 mg/kg s.c. BID; 0.1 mg/kg s.c. OD or 1.2 mg/kg i.v. […]
A disease activity index (DAI) scoring system was applied for clinical assessment (FIG. 7). The animals were sacrificed on day 14 and colon removed for histological assessment employing a histological scoring system (FIG. 8)

[2] = test system: Dextran Sodium Sulphate induced colitis; assay: prophylactic murine 10-day oral Dextran Sodium Sulphate induced colitis model, oral hBD2 versus oral prednisolone (Example 2); type: in vivo, C57BL/6 mice; settings: for histological score, compared with prednisolone: all three oral hBD2 dose groups versus prednisolone 1 mg/kg; for body weight loss / body weight change: all three oral hBD2 dose levels (0.05, 0.5, 5 mg/kg twice per day), 10 days; for histological score: versus vehicle, Prednisolone 1 mg/kg twice per day p.o., oral hBD2 all doses
Protocol: Anti-inflammatory effect of oral administration of hBD2 versus oral prednisolone in a prophylactic murine, 10-day, oral Dextran Sodium Sulphate induced colitis model.
50 male C57BL/6 mice housed in groups of five per cage were allocated to 5 different treatment groups. All animals had their drinking water supplemented with DSS 2% for 7 days to induce colitis resulting in significant inflammation and injury of the colonic tissue. The animals were treated with oral hBD2 dosed at three different dose levels twice per day or prednisolone 1 mg/kg twice per day or PBS as vehicle for 10 days.
A disease activity index (DAI) scoring system was applied for clinical assessment (FIG. 7). The animals were sacrificed on day 10 and colon removed for histological assessment employing a histological scoring system (FIG. 8).

[3] = test system: acute graft versus host disease following stem cell transplantation; assay: prophylactic oral hBD-2 versus cyclosporine in murine model of acute graft versus host disease (Example 14); type: in vivo, BALB/c mice
Protocol: To determine and assess the efficacy of prophylactic treatment with oral hBD-2 versus cyclosporine in a murine model of acute graft versus host disease following stem cell transplantation.
Treatment regime: 20 female BALB/c mice were irradiated with 4.5 Gy (2×498 sec) at intervals of at least 4 hours on day 0. Bone marrow was harvested: hind limbs harvested from 2 female WT C57BL/6 mice aseptically. Skeletal muscle was removed and epiphysis cut away. Lumen of bone flushed with PBS and cells pelleted and taken up. Harvest of T-cells: spleens from 2 female WT C57BL/6 mice were meshed through a […] cell strainer into a PBS filled dish. Cells were taken up in PBS and transferred into a 50 mL falcon tube and spun down. Cells were taken up in 1 mL PBS and 20 μL of CD4 microbead+20 μL CD8 microbeads per spleen added for incubation for 20 min at 4 degrees C. Cells were washed with PBS and applied to MACS separation in order to positively select CD4+ and CD8+ cells. Positively selected T-cells were counted and taken up. Transplantation: directly after the second irradiation, all WT BALB/c recipient mice were injected with 5×1.000.000 BM cells (50 μL) i.v. into the retroorbital venous plexus under isoflurane anesthesia. 20 BALB/c mice were treated with 1.2 mg of hBD2/kg BW/day (n=7); 50 mg cyclosporine/kg BW on days 0, 3, 6 and 9 (n=7) or 100 μL PBS per day vial oral gavage (n=6) from day 0-10.
The mice were weighed at regular intervals during the study and survival was monitored for 90 days.

[4] = test system: bacteria at the surface of the intestinal mucosa; assay: anti microbial effect of orally administered defensins, mucin immunostaining and localization of bacteria by FISH (Example 16); type: in vivo; settings: compared with mice on low fat or western diet
Protocol: Anti microbial effect of orally administered defensins (HD5 and hBD-2).
Mucus immunostaining was paired with fluorescent in situ hybridization (FISH), as previously described in order to analyze bacteria localization at the surface of the intestinal mucosa. Briefly, colonic tissues (proximal colon, 2nd cm from the cecum) without fecal material were placed in methanol-Carnoy's fixative solution (60% methanol, 30% chloroform, 10% glacial acetic acid) for a minimum of 3 hours at room temperature. Tissues were then washed in methanol 2×30 min, ethanol 2×15 min, ethanol/xylene (1:1), 15 min and xylene 2×15 min, followed by embedding in Paraffin with a vertical orientation. Five pm sections were performed and dewax by preheating at 60° C. for 10 min, followed by xylene 60° C. for 10 min, xylene for 10 min and 99.5% ethanol for 10 minutes. Hybridization step was performed at 50° C. overnight with EUB338 probe (5′-GCTGCCTCCCGTAGGAGT-3′, with a 5′ labeling using Alexa 647) diluted to a final concentration of 10 μg/mL in hybridization buffer (20 mM Tris-HCl, pH 7.4, 0.9 M NaCl, 0.1% SDS, 20% formamide). After washing 10 min in wash buffer (20 mM Tris-HCl, pH 7.4, 0.9 M NaCl) and 3×10 min in PBS, PAP pen (Sigma-Aldrich) was used to mark around the section and block solution (5% fetal bovine serum in PBS) was added for 30 min at 4° C. […]

Substance: human beta defensin 2 (GIGDPVTCLKSGAICHPVFCPRRYKQIGTCGLPGTKCCKKP; not fully specified (bridges); ends and bridges not checked; listed as Homo sapiens) [hBD2]
- histological score, compared with references ([1]; FIG. 16, hBD2 0.1 mg/kg versus dexamethasone 1 mg/kg and mouse anti TNF-α 300 μg/mouse): on par with dexamethasone 1 mg/kg and superior to mouse anti TNF-α 300 μg/mouse
- disease activity index (DAI) ([1]; hBD2 0.1 mg s.c. OD, Dexamethasone 1 mg/kg i.p. OD, day 8 to day 14): statistically significant effect on DAI
- histological score ([1]; hBD2 0.1 mg/kg s.c. OD, Dexamethasone 1 mg/kg i.p. OD, colon day 14): statistically significant effect on histological score; also recorded: statistical significant effect
- disease activity index score, compared with prednisolone ([2]; FIG. 11, orally administered hBD2 versus prednisolone 1 mg/kg): statistically significant superiority
- histological score, compared with prednisolone [2]: significantly better than Prednisolone
- histological score, compared with prednisolone ([2]; listed as HBD2): on par with prednisolone 1 mg/kg
- body weight loss / body weight change [2]: dramatically reduced loos of body weight
- body weight loss / body weight change ([2]; listed as HBD2hBD2): weight preserving effect
- body weight loss ([2]; high dose group hBD2 5 mg/kg BID oral): most pronounced
- disease activity index (DAI) ([2]; high dose hBD2 5 mg/kg BID oral, compared with lower doses and Prednisolone): significantly better effect on DAI
- disease activity index (DAI) ([2]; two lower dose levels of oral hBD2 (0.05, 0.5 mg/kg twice per day)): statistically significant effect on DAI on par with Prednisolone
- histological score [2]: statistically significant effect on histological score
- histological score ([2]; listed as HBD2): statistical significant effect
- mortality ([3]; FIG. 56, 7 mice treated with oral hBD-2 for 10 days): statistically significant reduction of mortality
- weight loss following bone marrow transplantation ([3]; compared with PBS treated mice): lost statistically significantly less weight
- treated animals that had died by day 90 ([3]; oral hBD-2 1.2 mg/kg/day day 0-10 (n=7), cyclosporine 50 mg/kg on days 0, 3, 6 and 9 (n=7), all but one of PBS mice (n=6) died): 1
- lysis zone, distance between intestinal wall and bacterial population [4]: profound effect on the distance
